Experiment: molar heat capacity at constant pressure; mn = molality of the nth substance listed, in mol/kg
Conditions: 100 kPa, Liquid, DSC

O=S(=O)([O-])[O-].[K+].[K+] [potassium sulfate] + O
molar heat capacity at constant pressure [J/K/mol]
Conditions | 253.15 K | 258.15 K | 263.15 K | 268.15 K | 273.15 K | 278.15 K | 283.15 K | 288.15 K | 293.15 K | 298.15 K
m1 = 0.1142 | – | – | 75.36 | 75.07 | 74.96 | 74.83 | 74.81 | 74.85 | 74.83 | 74.77
m1 = 0.201 | – | – | 74.67 | 74.5 | 74.48 | 74.33 | 74.39 | 74.45 | 74.46 | 74.43
m1 = 0.296 | – | – | 73.96 | 73.87 | 73.91 | 73.89 | 73.98 | 74.02 | 74.15 | 74.11
m1 = 0.415 | 73.75 | 73.5 | 73.32 | 73.32 | 73.42 | 73.4 | 73.55 | 73.65 | 73.77 | 73.77
m1 = 0.515 | – | 73.06 | 72.94 | 72.98 | 73.12 | 73.16 | 73.33 | 73.41 | 73.53 | 73.53
m1 = 0.606 | – | – | 72.64 | 72.74 | 72.9 | 72.92 | 73.14 | 73.21 | 73.33 | 73.33

O=S(=O)([O-])[O-].[Na+].[Na+] [sodium sulfate] + O
molar heat capacity at constant pressure [J/K/mol]
Conditions | 253.15 K | 258.15 K | 263.15 K | 268.15 K | 273.15 K | 278.15 K | 283.15 K | 288.15 K | 293.15 K | 298.15 K
m1 = 0.1012 | – | 76.36 | 75.81 | 75.43 | 75.23 | 75.08 | 74.99 | 74.95 | 74.93 | 74.97
m1 = 0.253 | – | 75.13 | 74.91 | 74.72 | 74.63 | 74.57 | 74.55 | 74.57 | 74.57 | 74.63
m1 = 0.501 | – | 74.17 | 74.13 | 74.09 | 74.11 | 74.15 | 74.2 | 74.28 | 74.32 | 74.4
m1 = 0.748 | 73.94 | 73.9 | 73.96 | 74.02 | 74.08 | 74.13 | 74.23 | 74.33 | 74.39 | 74.47
m1 = 1 | 73.97 | 74.01 | 74.15 | 74.21 | 74.31 | 74.39 | 74.49 | 74.62 | 74.68 | 74.76
m1 = 1.33 | 74.4 | 74.53 | 74.72 | 74.84 | 74.95 | 75.03 | 75.11 | 75.22 | 75.28 | 75.37
m1 = 1.517 | – | 74.71 | 74.81 | 75.03 | 75.22 | 75.33 | 75.52 | 75.65 | 75.77 | 75.8
m1 = 2.084 | – | – | – | – | – | – | 77.16 | 77.32 | 77.39 | 77.32

O=S(=O)([O-])[O-].[Mg+2] [magnesium sulfate] + O
molar heat capacity at constant pressure [J/K/mol]
Conditions | m1 = 0.0546 | m1 = 0.1089 | m1 = 0.213 | m1 = 0.526 | m1 = 1.001 | m1 = 1.502 | m1 = 2.012 | m1 = 2.495 | m1 = 2.775
248.15 K | – | – | – | – | – | – | 67.27 | 67.05 | 67.13
253.15 K | – | – | – | – | – | 68.74 | 67.94 | 67.75 | 67.86
258.15 K | – | – | – | 72.91 | – | 69.24 | 68.52 | 68.37 | 68.51
263.15 K | 76.21 | – | – | 72.94 | 70.95 | 69.74 | 69.11 | 68.98 | 69.12
268.15 K | 75.8 | 75.41 | 74.68 | 73 | 71.26 | 70.17 | 69.62 | 69.54 | 69.7
273.15 K | 75.56 | 75.23 | 74.58 | 73.08 | 71.54 | 70.59 | 70.1 | 70.03 | 70.24
278.15 K | 75.36 | 75.07 | 74.49 | 73.15 | 71.78 | 70.94 | 70.49 | 70.46 | 70.7
283.15 K | 75.24 | 74.96 | 74.44 | 73.23 | 71.98 | 71.23 | 70.88 | 70.89 | 71.11
288.15 K | 75.16 | 74.9 | 74.44 | 73.34 | 72.23 | 71.56 | 71.27 | 71.27 | 71.57
293.15 K | 75.09 | 74.85 | 74.42 | 73.44 | 72.41 | 71.83 | 71.57 | 71.63 | 71.94
298.15 K | 75.05 | 74.83 | 74.44 | 73.55 | 72.65 | 72.12 | 71.91 | 72.01 | 72.35
